A short description of data set [1]: Cumulative release of flurbiprofen from implant matrix at different polymer concentrations. Format: physicochemical. To be noted: about 5% flurbiprofen; for cumulative release: about 55% poly(DL-lactide); for cumulative percent release: polymer concentration about 45%. The text has this: The release rate of the bioactive agent from the implant matrix may also be adjusted by varying the concentration of the polymer in the polymer solution. For example, the more dilute the polymer concentration, the more readily the bioactive agent will be released from the implant matrix. For example, in a system containing about 5% flurbiprofen and a polymer concentration of about 55% poly(DL-lactide), a cumulative release of about 11.4% at day 1 and about 23% at day 7 may be provided. With a polymer concentration of about 45%, the cumulative percent release is about 23% at day 1 and about 40% at day 7.

A short description of data set [2]: Ex vivo release of bioactive agent from poly(DL-lactide) implant matrix, with and without release rate modification agent. Format: physicochemical. The source says: The use of a release rate modification agent may either decrease or increase the release of the bioactive agent in the range of multiple orders of magnitude (e.g., 1 to 10 to 100), preferably up to a ten-fold change, as compared to the release of a bioactive agent from a solid matrix without the release rate modification agent. For example, naltrexone and doxycycline are substantially completely released from a polymer matrix comprised of poly(DL-lactide) within about 2-3 days ex vivo. With the addition of a release rate modification agent such as ethyl heptanoate which is hydrophobic to the polymer solution, and formation of the implant matrix through interaction of the polymer solution and an aqueous medium, the release rate of naltrexone or doxycycline can be slowed to produce substantially complete release of the drug within about seven days. With the inclusion of a greater amount of a release rate modification agent into the polymer solution, the time period of the release can be increased to about fourteen days. Other release rate modification agents which are hydrophilic such as polyethylene glycol may increase the release of the bioactive agent. […]

Consider `CC(C(=O)O)c1ccc(-c2ccccc2)c(F)c1` (stereo not drawn) [flurbiprofen], for which, in data set [1] (day 1), the cumulative release entry is listed as “about 11.4%” and the cumulative percent release result is “about 23%”. For the same molecule, in data set [1] (day 7), the cumulative release result is reported as “about 23%” and the cumulative percent release result is “about 40%”.
On to `O=C1CC[C@@]2(O)[C@H]3Cc4ccc(O)c5c4[C@@]2(CCN3CC2CC2)[C@H]1O5` [naltrexone], for which the “time period of the release” value in data set [2] (poly(DL-lactide) matrix with a greater amount of release rate modification agent) is “about fourteen”. Moreover, the “time to substantially complete release from polymer matrix” value in data set [2] (poly(DL-lactide) matrix with ethyl heptanoate added as release rate modification agent) is on record as “about seven”.

The values are drawn from US6395293B2, “Biodegradable implant precursor” (Atrix Laboratories, priority 1989, dated 2002).
